Measurements reported in article PMC10261145, “Ceramide sensing by human SPT-ORMDL complex for establishing sphingolipid homeostasis” (Nature Communications, 2023).
One block for each molecule: values may come before it.

Legend:
SPT-ORMDL3 complex [1] = biological target: T1, SPT-ORMDL3 complex (Homo sapiens, UniProt O15269+O15270+Q8N138); test: cryo-EM structure; LC-MS/MS of co-purified ceramides; format: binding; conditions: endogenous co-purified lipid; C24-ceramide fitted to a ceramide-like density, chain length not uniquely defined
T1 construct: full-length subunits (ORMDL3-FL) co-expressed in HEK293F; N-terminal Flag tag on a subunit; purified in GDN; dimer of heterotetrameric protomers; with Serine palmitoyltransferase small subunit A
T1 sequence (O15270 whole entry, one chain of several): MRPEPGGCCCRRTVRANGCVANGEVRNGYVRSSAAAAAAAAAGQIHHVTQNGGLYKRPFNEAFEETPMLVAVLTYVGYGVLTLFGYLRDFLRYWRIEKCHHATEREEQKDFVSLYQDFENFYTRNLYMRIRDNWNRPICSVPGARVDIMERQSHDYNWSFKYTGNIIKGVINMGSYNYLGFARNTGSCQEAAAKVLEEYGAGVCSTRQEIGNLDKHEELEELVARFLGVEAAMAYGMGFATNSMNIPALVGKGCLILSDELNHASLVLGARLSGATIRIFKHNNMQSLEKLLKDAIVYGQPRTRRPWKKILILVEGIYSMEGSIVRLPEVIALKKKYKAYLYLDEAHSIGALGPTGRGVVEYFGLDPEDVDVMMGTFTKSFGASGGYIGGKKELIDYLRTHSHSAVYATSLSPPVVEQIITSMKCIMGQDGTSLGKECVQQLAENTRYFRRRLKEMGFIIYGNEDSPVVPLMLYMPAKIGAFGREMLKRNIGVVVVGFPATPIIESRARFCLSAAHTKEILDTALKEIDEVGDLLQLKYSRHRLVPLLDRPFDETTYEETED
T1 sequence (O15269 whole entry, one chain of several): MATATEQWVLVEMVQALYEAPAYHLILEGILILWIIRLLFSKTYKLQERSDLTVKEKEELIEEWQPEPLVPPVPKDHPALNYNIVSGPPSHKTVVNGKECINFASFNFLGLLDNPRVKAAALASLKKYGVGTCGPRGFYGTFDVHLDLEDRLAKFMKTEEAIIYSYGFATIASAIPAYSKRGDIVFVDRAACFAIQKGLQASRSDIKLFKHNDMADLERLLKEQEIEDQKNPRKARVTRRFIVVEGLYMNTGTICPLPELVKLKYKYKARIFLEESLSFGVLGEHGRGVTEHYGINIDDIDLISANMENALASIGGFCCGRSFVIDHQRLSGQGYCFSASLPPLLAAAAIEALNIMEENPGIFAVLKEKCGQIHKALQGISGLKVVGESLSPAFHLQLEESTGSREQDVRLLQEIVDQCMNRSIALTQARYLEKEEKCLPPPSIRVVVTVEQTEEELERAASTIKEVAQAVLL

SPT-ORMDL3 complex [2] = biological target: T2, SPT-ORMDL3 complex (Homo sapiens, UniProt O15269+O15270+Q8N138, Q8N138:N13A); test: DTNB CoA-release assay; format: biochemical; conditions: 10 mM L-serine, 100 μM palmitoyl-CoA, 25 μM PLP, pH 7.5, 37 °C
T2 construct: full-length subunits (ORMDL3-FL) co-expressed in HEK293F; N-terminal Flag tag on a subunit; purified in GDN; dimer of heterotetrameric protomers; with Serine palmitoyltransferase small subunit A
T2 sequence (Q8N138 whole entry N13A, one chain of several): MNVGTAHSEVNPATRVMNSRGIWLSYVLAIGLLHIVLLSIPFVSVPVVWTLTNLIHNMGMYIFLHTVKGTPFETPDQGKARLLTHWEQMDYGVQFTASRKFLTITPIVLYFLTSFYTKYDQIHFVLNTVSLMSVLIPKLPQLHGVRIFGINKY
T2 sequence (O15270 whole entry, one chain of several): as the sequence (O15270 whole entry, one chain of several) above
T2 sequence (O15269 whole entry, one chain of several): as the sequence (O15269 whole entry, one chain of several) above

SPT-ORMDL2 complex = biological target: T3, SPT-ORMDL2 complex (Homo sapiens, UniProt O15269+O15270+Q53FV1); test: DTNB CoA-release assay; format: biochemical
T3 construct: full-length subunits co-expressed in HEK293F; N-terminal Flag tag on a subunit; purified in GDN; with Serine palmitoyltransferase small subunit A
T3 sequence (Q53FV1 whole entry, one chain of several): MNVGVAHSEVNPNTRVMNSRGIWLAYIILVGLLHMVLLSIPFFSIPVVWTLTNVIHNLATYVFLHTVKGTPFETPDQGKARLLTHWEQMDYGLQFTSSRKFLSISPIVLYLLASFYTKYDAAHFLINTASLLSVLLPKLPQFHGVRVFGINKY
T3 sequence (O15270 whole entry, one chain of several): as the sequence (O15270 whole entry, one chain of several) above
T3 sequence (O15269 whole entry, one chain of several): as the sequence (O15269 whole entry, one chain of several) above

SPT-ORMDL3 complex [3] = biological target: T4, SPT-ORMDL3 complex (Homo sapiens, UniProt O15269+O15270+Q8N138, O15269:DEL40-41); test: DTNB CoA-release assay; format: biochemical; conditions: 10 mM L-serine, 100 μM palmitoyl-CoA, 25 μM PLP, pH 7.5, 37 °C
T4 construct: full-length subunits (ORMDL3-FL) co-expressed in HEK293F; N-terminal Flag tag on a subunit; purified in GDN; dimer of heterotetrameric protomers; with Serine palmitoyltransferase small subunit A
T4 sequence (O15270 whole entry, stated change not applied, one chain of several): as the sequence (O15270 whole entry, one chain of several) above
T4 sequence (O15269 with tags, fused parts or gaps DEL40-41, one chain of several): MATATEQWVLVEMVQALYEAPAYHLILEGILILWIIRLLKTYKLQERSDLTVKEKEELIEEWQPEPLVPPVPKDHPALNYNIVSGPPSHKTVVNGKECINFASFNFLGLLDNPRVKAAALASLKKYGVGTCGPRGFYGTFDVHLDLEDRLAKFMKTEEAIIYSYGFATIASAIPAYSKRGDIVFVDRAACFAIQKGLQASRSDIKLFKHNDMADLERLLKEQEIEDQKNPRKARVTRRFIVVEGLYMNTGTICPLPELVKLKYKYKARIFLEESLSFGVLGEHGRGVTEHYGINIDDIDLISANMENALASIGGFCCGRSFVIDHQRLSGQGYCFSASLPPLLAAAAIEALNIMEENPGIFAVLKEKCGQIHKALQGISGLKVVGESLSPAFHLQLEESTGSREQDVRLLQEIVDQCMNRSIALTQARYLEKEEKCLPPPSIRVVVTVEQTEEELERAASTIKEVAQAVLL

SPT-ORMDL3 complex [4] = biological target: T5, SPT-ORMDL3 complex (Homo sapiens, UniProt O15269+O15270+Q8N138, O15270:Y122A); test: DTNB CoA-release assay; format: biochemical
T5 construct: full-length subunits (ORMDL3-FL) co-expressed in HEK293F; N-terminal Flag tag on a subunit; purified in GDN; dimer of heterotetrameric protomers; with Serine palmitoyltransferase small subunit A
T5 sequence (O15270 whole entry Y122A, one chain of several): as the sequence (O15270 whole entry, one chain of several) above, with Y122A counted along it
T5 sequence (O15269 whole entry, one chain of several): as the sequence (O15269 whole entry, one chain of several) above
Text: (§1) DTNB CoA-release assay on SPT-ORMDL3 complex | severely impaired for the former two variants, but largely sustained for the latter two variants

SPT-ORMDL3 complex [5] = biological target: T6, SPT-ORMDL3 complex (Homo sapiens, UniProt O15269+O15270+Q8N138, Q8N138:H85A); test: DTNB CoA-release assay; format: biochemical
T6 construct: full-length subunits (ORMDL3-FL) co-expressed in HEK293F; N-terminal Flag tag on a subunit; purified in GDN; dimer of heterotetrameric protomers; with Serine palmitoyltransferase small subunit A
T6 sequence (Q8N138 whole entry H85A, one chain of several): as the sequence (Q8N138 whole entry N13A, one chain of several) above, with A13N, H85A counted along it
T6 sequence (O15270 whole entry, one chain of several): as the sequence (O15270 whole entry, one chain of several) above
T6 sequence (O15269 whole entry, one chain of several): as the sequence (O15269 whole entry, one chain of several) above
Text: as §1

SPT-ORMDL1 complex = biological target: T7, SPT-ORMDL1 complex (Homo sapiens, UniProt O15269+O15270+Q9P0S3); test: DTNB CoA-release assay; format: biochemical
T7 construct: full-length subunits co-expressed in HEK293F; N-terminal Flag tag on a subunit; purified in GDN; with Serine palmitoyltransferase small subunit A
T7 sequence (Q9P0S3 whole entry, one chain of several): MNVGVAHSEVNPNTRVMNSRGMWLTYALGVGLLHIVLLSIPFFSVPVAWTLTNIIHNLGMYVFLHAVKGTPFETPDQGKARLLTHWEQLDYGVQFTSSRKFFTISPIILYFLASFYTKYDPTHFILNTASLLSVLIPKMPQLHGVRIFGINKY
T7 sequence (O15270 whole entry, one chain of several): as the sequence (O15270 whole entry, one chain of several) above
T7 sequence (O15269 whole entry, one chain of several): as the sequence (O15269 whole entry, one chain of several) above

SPT-ORMDL3 complex [6] = biological target: T1, SPT-ORMDL3 complex; test: DTNB CoA-release assay; cryo-EM structure; format: biochemical
SPT-ORMDL3 complex [7] = biological target: T8, SPT-ORMDL3 complex (Homo sapiens, UniProt O15269+O15270+Q8N138, Q8N138:F63P); test: DTNB CoA-release assay; format: biochemical; conditions: 10 mM L-serine, 100 μM palmitoyl-CoA, 25 μM PLP, pH 7.5, 37 °C
T8 construct: full-length subunits (ORMDL3-FL) co-expressed in HEK293F; N-terminal Flag tag on a subunit; purified in GDN; dimer of heterotetrameric protomers; with Serine palmitoyltransferase small subunit A
T8 sequence (Q8N138 whole entry F63P, one chain of several): as the sequence (Q8N138 whole entry N13A, one chain of several) above, with A13N, F63P counted along it
T8 sequence (O15270 whole entry, one chain of several): as the sequence (O15270 whole entry, one chain of several) above
T8 sequence (O15269 whole entry, one chain of several): as the sequence (O15269 whole entry, one chain of several) above

SPT-ORMDL3 complex [8] = biological target: T9, SPT-ORMDL3 complex (Homo sapiens, UniProt O15269+O15270+Q8N138, O15269:DEL39-39); test: DTNB CoA-release assay; format: biochemical; conditions: 10 mM L-serine, 100 μM palmitoyl-CoA, 25 μM PLP, pH 7.5, 37 °C
T9 construct: full-length subunits (ORMDL3-FL) co-expressed in HEK293F; N-terminal Flag tag on a subunit; purified in GDN; dimer of heterotetrameric protomers; with Serine palmitoyltransferase small subunit A
T9 sequence (O15270 whole entry, stated change not applied, one chain of several): as the sequence (O15270 whole entry, one chain of several) above
T9 sequence (O15269 with tags, fused parts or gaps DEL39-39, one chain of several): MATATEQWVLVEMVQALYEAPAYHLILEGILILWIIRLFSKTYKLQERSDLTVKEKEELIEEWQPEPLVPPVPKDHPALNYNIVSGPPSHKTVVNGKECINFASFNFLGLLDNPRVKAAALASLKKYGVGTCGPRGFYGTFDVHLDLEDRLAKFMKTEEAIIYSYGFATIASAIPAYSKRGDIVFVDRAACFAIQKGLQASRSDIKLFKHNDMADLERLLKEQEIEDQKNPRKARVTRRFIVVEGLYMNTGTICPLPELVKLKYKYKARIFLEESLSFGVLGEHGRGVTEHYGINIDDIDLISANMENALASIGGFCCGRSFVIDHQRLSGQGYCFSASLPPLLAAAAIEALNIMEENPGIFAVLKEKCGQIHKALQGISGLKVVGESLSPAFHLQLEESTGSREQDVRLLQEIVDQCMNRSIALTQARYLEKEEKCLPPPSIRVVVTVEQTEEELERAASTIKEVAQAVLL

[9] = biological target: T10, ORMDL3 (full-length, wild type) (human, UniProt Q8N138 1-153); test: cryo-EM structure; single-particle cryo-EM of co-expressed and co-purified SPT-ORMDL3 complexes at ~18 mg/ml in 25 mM HEPES pH 7.5, 150 mM NaCl, 0.01% GDN; apo, or WT preincubated with 1 mM C6-ceramide on ice for 1 hr; conditions: both partners purified
T10 construct: ORMDL3, human, codon-optimized full-length cDNA in pCAG (new ORMDL3-FL plasmid without the 14 extra nucleotides upstream of the ORF); cDNAs were cloned 'with an N-terminal Flag tag or without a tag'; also called ORMDL3-FL; WT ORMDL3; source: HEK293F, transiently co-transfected with the SPT subunits, purified as a complex (anti-Flag resin, SEC, GDN)
T10 sequence (looked up): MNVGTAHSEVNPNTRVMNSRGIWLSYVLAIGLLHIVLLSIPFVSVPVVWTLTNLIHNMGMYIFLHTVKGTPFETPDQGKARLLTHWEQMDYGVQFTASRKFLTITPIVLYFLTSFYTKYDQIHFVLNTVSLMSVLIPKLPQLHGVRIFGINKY

Molecule: CCCCCCCCCCCCC/C=C/[C@@H](O)[C@H](CO)NC(=O)CCCCCCCCCCCCCCCCCCCCCCC [C24-ceramide]
cryo-EM structure; LC-MS/MS of co-purified ceramides (SPT-ORMDL3 complex [1]): ceramide-like density in the apo SPT-ORMDL3 structure, which could be better fitted with C24-ceramide

IC50 (SPT-ORMDL2 complex): 980 nM
IC50 (SPT-ORMDL3 complex [4]): 6980 nM
IC50 (SPT-ORMDL3 complex [5]): 964 nM
IC50 (SPT-ORMDL1 complex): 4070 nM
IC50 (SPT-ORMDL3 complex [6]): 2200 nM
Molecule: CCCCCCCCCCCCC/C=C/[C@@H](O)[C@H](CO)NC(=O)CCCCC [C6-ceramide]
inhibition curve (SPT-ORMDL3 complex [2]): responses to C6-ceramide have been severely impaired for the former two variants
inhibition curve (SPT-ORMDL3 complex [3]): inhibition effect of C6-ceramide on all these SPTLC1 ALS variants was attenuated
inhibition curve (SPT-ORMDL3 complex [7]): responses to C6-ceramide have been severely impaired for the former two variants
inhibition curve (SPT-ORMDL3 complex [8]): inhibition effect of C6-ceramide on all these SPTLC1 ALS variants was attenuated

binding result [9]: binds
B1: SPTssa (natural protein, human, UniProt Q969W0 1-71, looked up)
chain: MAGMALARAWKQMSWFYYQYLLVTALYMLEPWERTVFNSMLVSIVGMALYTGYVFMPQHIMAILHYFEIVQ
notes: serine palmitoyltransferase small subunit A (SPTssa), human, codon-optimized full-length cDNA; also called small SPT subunit; source: HEK293F, transiently co-transfected with the other subunits, purified as a complex (anti-Flag resin, SEC, GDN)
